≈ marks a conversion by molar mass, not a printed value. Where two headings read alike, the source gives them in different places.
Assays:
[1] = test system: M. abscessus subsp. abscessus Bamboo 844^r-2 (GyrA D91N); assay: MIC, resistant mutant; assay type: cell-based, Mycobacterium abscessus; conditions: Mycobacteroides abscessus
[2] = test system: M. abscessus subsp. abscessus Bamboo 844^r-3 (GyrB S473W); assay: MIC, resistant mutant; assay type: cell-based, Mycobacterium abscessus; conditions: Mycobacteroides abscessus
[3] = test system: M. abscessus subsp. abscessus ATCC 19977 MXF^r-2 (GyrA D96N); assay: MIC, resistant mutant; assay type: cell-based, Mycobacterium abscessus; conditions: Mycobacteroides abscessus, ATCC19977
[4] = test system: M. abscessus subsp. abscessus ATCC 19977 MXF^r-3 (GyrA D96G); assay: MIC, resistant mutant; assay type: cell-based, Mycobacterium abscessus; conditions: Mycobacteroides abscessus, ATCC19977
[5] = target: recombinant M. abscessus wild-type DNA gyrase (Mycobacteroides abscessus, UniProt B1ME45+B1ME58); assay: biochemical; set-up: species or system Mycobacterium abscessus
[6] = target: GyrA D91N mutant recombinant M. abscessus DNA gyrase (Mycobacteroides abscessus, UniProt B1ME45+B1ME58, D91N); assay type: biochemical, Mycobacterium abscessus; conditions: GyrA D91N mutant DNA gyrase, up to 50 μM
[7] = test system: M. abscessus subsp. abscessus ATCC 19977; assay: Time-concentration kill assay, planktonic cultures; assay type: cell-based, Mycobacterium abscessus; conditions: 1×, 4×, 8× MIC; CFU after 2 and 3 days
Protocol: At 0, 2, and 3 days, tubes were vortexed, and 20 μl of the cultures was transferred to round-bottom 96-well plates containing 180 μl of phosphate-buffered saline (PBS) (10010023; Thermo Fisher, USA) with 0.025% Tween 80 (PBS/Tween 80) for 10-fold serial dilution. To prevent compound carryover effects, we plated out serially diluted samples onto 7H10 agar supplemented with 0.4% activated charcoal (C9154; Sigma-Aldrich, USA) for all time points as described ([48]). CFU were enumerated after 4 days of incubation at 37°C.

[8] = test system: M. abscessus subsp. abscessus ATCC 19977; assay: Selection and characterization of spontaneous resistant mutants; assay type: cell-based, Mycobacterium abscessus; conditions: ATCC 19977, agar with 8× MIC
[9] = Parallel artificial membrane permeability assay (PAMPA); assay type: in vitro ADME
Protocol: (§1) Kinetic solubility, parallel artificial membrane permeability assay (PAMPA) permeability, and stability in the mouse liver microsome assay were performed by BioDuro (Shanghai, China) according to standard protocols.

[10] = Mouse liver microsome stability; assay type: in vitro ADME
Protocol: as §1

[11] = In vivo mouse pharmacokinetics; conditions: CD-1 mice
Protocol: All animal experiments were approved by the Center for Discovery and Innovation, Institutional Animal Care and Use Committee, and were conducted in compliance with their guidelines. Female CD-1 mice were weighed and received a single dose of […] via the intravenous (i.v.) (5 mg/kg of body weight), oral (p.o.) (25 mg/kg), or subcutaneous (s.c.) (25 mg/kg) dosing route. The compound was formulated as a solution in 5% N,N-dimethylacetamide (DMA)/95% Milli-Q water vehicle. Blood samples were serially collected via the tail snip from each individual mouse at 0.017, 0.25, 1, 3, 5, and 8 h postdose following i.v. dosing and at 0.5, 1, 3, and 5 h postdose following p.o. and s.c. dosing. Blood (50 μl) was collected in capillary Microvette K2EDTA tubes (16.444.100; Sarstedt, Inc.) and kept on ice prior to centrifugation at 1,500 × g for 5 min. The supernatant (plasma) was transferred into a 96-well plate and stored at −80°C.
Liquid chromatography-tandem mass spectrometry (LC-MS/MS) analysis was performed on a Sciex Applied Biosystems Qtrap 6500+ triple-quadrupole mass spectrometer coupled to a Shimadzu Nexera 2 high-pressure liquid chromatography (HPLC) system to quantify each drug in plasma. Neat 1 mg/ml DMSO stocks for 844-TFM were serial diluted in 50:50 acetonitrile (ACN)/water to create standard curves and quality control (QC) spiking solutions. Standards and QCs were created by adding 10 μl of spiking solutions to 90 μl of drug-free plasma (CD-1 K2EDTA Mouse; Bioreclamation IVT). Twenty microliters of control, standard, QC, or study sample were added to 200 μl of ACN/methanol (MeOH) 50:50 protein precipitation solvent containing internal standard (10 ng/ml verapamil). Extracts were vortexed for 5 min and centrifuged at 4,000 rpm for 5 min. One hundred microliters of supernatant was transferred for HPLC-MS/MS analysis and diluted with 100 μl of Milli-Q deionized water.
Chromatography was performed on an Agilent Zorbax SB-C8 column (2.1 × 30 mm; particle size, 3.5 μm) using a reverse-phase gradient. Milli-Q deionized water with 0.1% formic acid was used for the aqueous mobile phase and 0.1% formic acid in ACN for the organic mobile phase. Multiple-reaction monitoring of precursor/product transitions in electrospray positive-ionization mode was used to quantify the analytes. The following multiple reaction monitoring (MRM) transitions were used for 844-TFM (459.10/133.00) and verapamil (455.4/165.2). Sample analysis was accepted if the concentrations of the quality control samples were within 20% of the nominal concentration. Data processing was performed using Analyst software (version 1.6.2; Applied Biosystems Sciex).

[12] = Plasma stability; assay type: in vitro ADME, CD-1 mice; conditions: mouse plasma, 37°C, 1 μg/ml
Protocol: (§2) The plasma stability assays were carried out using plasma from female CD-1 mice, New Zealand white rabbits, rhesus monkeys, and humans containing K2EDTA anticoagulant (Bioreclamation). Stability samples consisted of 5 μl of stock compound solution in 50:50 ACN/water and 95 μl of plasma to a final concentration of 1 μg/ml. The samples were incubated at 37°C with shaking; 10 μl of plasma was removed at each time point and combined with 100 μl of ACN/methanol 50:50 protein precipitation solvent containing internal standard (10 ng/ml verapamil). Chromatography for metabolite identification was performed the same as specified for pharmacokinetic sample analysis. Full scan total ion chromatograms (TIC) of plasma extracts were acquired using a Q Exactive high-resolution mass spectrometer (QE-HRMS) at 70,000 mass resolution. Thermo Fisher Compound Discoverer software was used to assist in identifying the 844-TFM metabolites from the QE-HRMS TIC mass spectrum. Figure S2 in the supplemental material illustrates the extracted ion chromatograms (XIC) of 844-TFM and the metabolites using 5 ppm mass accuracy before and after 12 h of incubation in mouse plasma.

[13] = Plasma stability; assay type: in vitro ADME, rhesus monkeys; conditions: monkey plasma, 37°C, 1 μg/ml
Protocol: as §2

[14] = Plasma stability; assay type: in vitro ADME, humans; conditions: human plasma, 37°C, 1 μg/ml
Protocol: as §2

[15] = female, mouse, plasma, iv, i.v. 5 mg/kg, average (SD)

Chain of recombinant M. abscessus wild-type DNA gyrase (B1ME58 entry or part of it): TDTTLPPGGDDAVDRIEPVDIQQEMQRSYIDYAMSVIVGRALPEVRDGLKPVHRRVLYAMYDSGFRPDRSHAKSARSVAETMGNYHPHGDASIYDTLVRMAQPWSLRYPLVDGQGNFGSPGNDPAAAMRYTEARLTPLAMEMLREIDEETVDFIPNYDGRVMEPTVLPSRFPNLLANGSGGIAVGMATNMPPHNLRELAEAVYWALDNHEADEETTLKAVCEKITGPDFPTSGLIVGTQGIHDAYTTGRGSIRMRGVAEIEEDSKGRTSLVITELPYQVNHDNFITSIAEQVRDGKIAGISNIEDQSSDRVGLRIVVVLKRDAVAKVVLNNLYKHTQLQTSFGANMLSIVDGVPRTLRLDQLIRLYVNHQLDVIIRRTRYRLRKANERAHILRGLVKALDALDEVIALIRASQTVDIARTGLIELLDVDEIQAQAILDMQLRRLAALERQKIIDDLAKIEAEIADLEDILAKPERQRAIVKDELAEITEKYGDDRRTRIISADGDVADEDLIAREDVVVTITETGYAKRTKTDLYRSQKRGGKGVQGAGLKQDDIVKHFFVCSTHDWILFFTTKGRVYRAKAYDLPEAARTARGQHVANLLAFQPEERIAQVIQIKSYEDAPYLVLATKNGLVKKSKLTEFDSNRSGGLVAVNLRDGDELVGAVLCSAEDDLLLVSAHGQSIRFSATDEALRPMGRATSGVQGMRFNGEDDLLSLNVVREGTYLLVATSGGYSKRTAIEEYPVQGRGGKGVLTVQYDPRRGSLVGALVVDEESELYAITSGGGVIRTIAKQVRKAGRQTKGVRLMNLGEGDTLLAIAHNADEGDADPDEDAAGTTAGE
Chain of recombinant M. abscessus wild-type DNA gyrase (B1ME45 entry or part of it): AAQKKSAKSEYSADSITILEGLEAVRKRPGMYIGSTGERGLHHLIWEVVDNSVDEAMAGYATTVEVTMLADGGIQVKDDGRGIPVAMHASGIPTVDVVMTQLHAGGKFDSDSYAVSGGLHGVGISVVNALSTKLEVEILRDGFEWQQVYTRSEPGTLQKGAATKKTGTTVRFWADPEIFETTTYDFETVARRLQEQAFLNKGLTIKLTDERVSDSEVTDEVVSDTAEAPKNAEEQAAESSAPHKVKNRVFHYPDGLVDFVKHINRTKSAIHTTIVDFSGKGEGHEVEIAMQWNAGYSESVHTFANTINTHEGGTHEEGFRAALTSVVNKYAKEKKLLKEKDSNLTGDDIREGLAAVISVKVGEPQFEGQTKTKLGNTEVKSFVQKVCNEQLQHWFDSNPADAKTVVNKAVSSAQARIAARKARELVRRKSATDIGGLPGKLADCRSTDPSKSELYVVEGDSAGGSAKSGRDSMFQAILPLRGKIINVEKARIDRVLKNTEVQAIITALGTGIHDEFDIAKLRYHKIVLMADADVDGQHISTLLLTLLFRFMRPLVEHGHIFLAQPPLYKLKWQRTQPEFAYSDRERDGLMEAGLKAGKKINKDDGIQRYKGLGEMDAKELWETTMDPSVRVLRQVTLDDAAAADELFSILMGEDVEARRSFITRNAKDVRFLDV
Chain of GyrA D91N mutant recombinant M. abscessus DNA gyrase (B1ME58 2-839, stated change not applied): as the sequence (B1ME58 entry or part of it) above
Chain of GyrA D91N mutant recombinant M. abscessus DNA gyrase (B1ME45 2-675, stated change not applied): as the sequence (B1ME45 entry or part of it) above

**Q.** Which MIC [1] does the source give for COc1ccc2nccc(NC(=O)C3CCN(CCc4ccc(C(F)(F)F)cc4)CC3)c2n1 [844-TFM] here?
**A.** > 100 µM

**Q.** And the MIC [2]?
**A.** 5 µM (≈ 2.29 µg/mL)

**Q.** And the MIC [3]?
**A.** 2 µM (≈ 0.917 µg/mL)

**Q.** What about the MIC [4] of the same molecule?
**A.** 1 µM (≈ 0.458 µg/mL)

**Q.** What about the “IC50 fold lower than the IC50 of parental 844” value [5] of the same molecule?
**A.** 2.4 fold

**Q.** What about the IC50 ([5]; wild-type DNA gyrase, relaxed pBR322 substrate, read-out: IC50, supercoiling activity) of the same molecule?
**A.** 1900 nM

**Q.** And the “effect on supercoiling activity” value [6]?
**A.** No inhibition

**Q.** What about the “bactericidal activity in planktonic cultures” value [7] of the same molecule?
**A.** bactericidal

**Q.** What about the “frequency of spontaneous resistance” value [8] of the same molecule?
**A.** 10^−8 /CFU

**Q.** What about the Papp ([9]; PAMPA, pH 7.4, read-out: PAMPA Mean Pe) of the same molecule?
**A.** 2 ×10⁻⁶ cm/s

**Q.** What about the “PAMPA logPe” value ([9]; pH 7.4) of the same molecule?
**A.** −5.7

**Q.** And the “PAMPA logPe” value ([9]; −5.0 cm/s considered border between high and low permeability)?
**A.** −5.7 cm/s

**Q.** What about the CLint scaled ([10]; liver microsomes, mouse hepatic microsomes, scaled) of the same molecule?
**A.** 1050 mL/min/kg

**Q.** What about the microsomal CLint ([10]; liver microsomes, mouse hepatic microsomes, read-out: In vitro CLint) of the same molecule?
**A.** 267 µL/min/mg

**Q.** And the t1/2 ([10]; mouse hepatic microsomes, in vitro)?
**A.** 5.2 min

**Q.** What about the CLhepatic ([10]; mouse hepatic microsomes, scaled) of the same molecule?
**A.** 82.9 mL/min/kg

**Q.** And the half-life ([10]; mouse, liver microsomes, mouse hepatic microsomes, in vitro)?
**A.** 5 min

**Q.** And the predicted extraction ratio ([10]; mouse, clearance vs hepatic blood flow of 90 ml/min/kg)?
**A.** ~1

**Q.** And the V ([11]; i.v. 5 mg/kg, average (SD))?
**A.** 0.811 (0.221) liter/kg

**Q.** What about the clearance [11, 15] of the same molecule?
**A.** 10.6 mL/min/kg

**Q.** What about the k el [11, 15] of the same molecule?
**A.** 0.000192 s⁻¹

**Q.** What about the AUC ([11]; female, mouse, plasma, iv, i.v. 5 mg/kg, average (SD), read-out: AUC i.v.) of the same molecule?
**A.** 5630 ng·h/mL

**Q.** What about the half-life ([11]; female, mouse, plasma, iv, i.v. 5 mg/kg, average (SD), read-out: elimination half-life (converted)) of the same molecule?
**A.** 61.8 min

**Q.** And the bioavailability ([11]; female, mouse, plasma, oral, p.o. 25 mg/kg vs i.v. 5 mg/kg, read-out: p.o. bioavailability)?
**A.** 0.05 to 0.2%

**Q.** And the bioavailability ([11]; female, mouse, plasma, po, p.o. 25 mg/kg vs i.v. 5 mg/kg, read-out: p.o. bioavailability)?
**A.** 0.15%

**Q.** And the AUC ([11]; female, mouse, plasma, po, p.o. 25 mg/kg, average (SD), read-out: AUC p.o.)?
**A.** 58 ng·h/mL

**Q.** What about the bioavailability ([11]; female, mouse, plasma, sc, s.c. 25 mg/kg vs i.v. 5 mg/kg, read-out: s.c. bioavailability) of the same molecule?
**A.** 3%

**Q.** And the AUC ([11]; female, mouse, plasma, sc, s.c. 25 mg/kg, average (SD), read-out: AUC s.c.)?
**A.** 1170 ng·h/mL

**Q.** And the stability in plasma [12]?
**A.** rapidly degraded

**Q.** And the “remaining after 24 h” value [13]?
**A.** approximately 80%

**Q.** And the “remaining after 24 h” value [14]?
**A.** approximately 80%
